Experimental data: patent US20070027136A1, “Formulations of anthraquinone derivatives” (priority 2003, published 2007)

Test: AQMN content before and after freeze drying
Type: physicochemical
Conditions: 40 mg/ml, 10 mM sodium phosphate buffer pH 7.0
Procedure: Formulated AQ4N material was prepared at 40 mg/ml in 10 mM sodium phosphate buffer at pH 7.0. A portion of this solution was filled into ampoules and the remained into vials and freeze dried according to the cycle as specified in Tables 9 and 10.
The AQMN content of the samples before and after freeze drying (ampoule fill and vial fill, respectively) were measured as shown in Table 11.

C[N+](C)([O-])CCNc1ccc(NCC[N+](C)(C)[O-])c2c1C(=O)c1c(O)ccc(O)c1C2=O [AQ4N raw material]
AQMN content (% peak area w.r.t. std.): 22.6%
